Laboratory results from ChEMBL document CHEMBL5385925, “Phytochemical Characterization and TRPA1/TRPM8 Modulation Profile of the Cannabigerol-Rich Cannabis sativa L. Chemotype IV” (J Nat Prod, 2024).
pEC50, pIC50: −log10 of the molar value. The source made the active and inactive calls. No cut-off for these calls is given here.

Assays:
Format in all cases: cell-based
[1] = molecular target: Transient receptor potential cation channel subfamily A member 1 (Rattus norvegicus) (UniProt Q6RI86); experiment: Agonist activity at rat TRPA1 transfected in HEK293 cells assessed as increase in intracellular Ca2+ concentration by measuring efficacy by Fluo4-AM dye based assay relative to AITC
[2] = molecular target: T1, Transient receptor potential cation channel subfamily A member 1 (Rattus norvegicus, UniProt Q6RI86); experiment: Agonist activity at rat TRPA1 transfected in HEK293 cells assessed as increase in intracellular Ca2+ concentration by Fluo4-AM dye based assay
[3] = molecular target: T1, Transient receptor potential cation channel subfamily A member 1; experiment: Antagonist activity at rat TRPA1 transfected in HEK293 cells assessed as desensitization by measuring inhibition of AITC induced increase in intracellular Ca2+ concentration preincubated for 5 mins followed by AITC stimulation by Fluo4-AM dye based assay
[4] = molecular target: Transient receptor potential cation channel subfamily M member 8 (Rattus norvegicus, UniProt Q8R455); experiment: Antagonist activity at rat TRPM8 transfected in HEK293 cells assessed as inhibition of icilin induced increase in intracellular Ca2+ concentration preincubated for 5 mins followed by icilin stimulation by Fluo4-AM dye based assay
[5] = molecular target: Transient receptor potential cation channel subfamily V member 1 (Homo sapiens) (UniProt Q8NER1); experiment: Modulation of human TRPV1 transfected in HEK293 cells
Chain of Transient receptor potential cation channel subfamily V member 1 (Homo sapiens) (Q8NER1 whole entry): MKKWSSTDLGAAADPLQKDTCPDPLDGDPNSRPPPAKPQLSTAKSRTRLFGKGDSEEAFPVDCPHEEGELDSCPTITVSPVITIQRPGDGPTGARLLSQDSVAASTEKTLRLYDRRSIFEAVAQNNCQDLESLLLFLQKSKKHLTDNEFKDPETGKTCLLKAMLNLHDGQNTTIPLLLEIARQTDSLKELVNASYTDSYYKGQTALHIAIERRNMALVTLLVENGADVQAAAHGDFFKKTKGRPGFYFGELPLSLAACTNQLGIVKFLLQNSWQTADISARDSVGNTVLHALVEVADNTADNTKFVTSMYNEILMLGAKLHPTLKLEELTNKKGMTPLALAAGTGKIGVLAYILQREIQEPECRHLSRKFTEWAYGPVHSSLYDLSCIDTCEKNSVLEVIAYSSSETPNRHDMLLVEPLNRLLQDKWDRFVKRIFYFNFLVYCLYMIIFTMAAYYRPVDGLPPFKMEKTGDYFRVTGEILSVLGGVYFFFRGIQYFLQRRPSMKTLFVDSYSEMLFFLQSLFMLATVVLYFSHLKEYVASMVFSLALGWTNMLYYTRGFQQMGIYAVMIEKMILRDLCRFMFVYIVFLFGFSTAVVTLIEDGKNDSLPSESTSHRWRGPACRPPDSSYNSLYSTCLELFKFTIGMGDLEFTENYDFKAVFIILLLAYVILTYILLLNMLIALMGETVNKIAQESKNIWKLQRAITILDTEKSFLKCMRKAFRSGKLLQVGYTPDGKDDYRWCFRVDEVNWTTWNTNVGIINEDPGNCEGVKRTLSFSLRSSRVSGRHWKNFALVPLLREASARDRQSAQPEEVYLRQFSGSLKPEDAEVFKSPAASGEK

Chain of Transient receptor potential cation channel subfamily M member 8 (Q8R455 whole entry): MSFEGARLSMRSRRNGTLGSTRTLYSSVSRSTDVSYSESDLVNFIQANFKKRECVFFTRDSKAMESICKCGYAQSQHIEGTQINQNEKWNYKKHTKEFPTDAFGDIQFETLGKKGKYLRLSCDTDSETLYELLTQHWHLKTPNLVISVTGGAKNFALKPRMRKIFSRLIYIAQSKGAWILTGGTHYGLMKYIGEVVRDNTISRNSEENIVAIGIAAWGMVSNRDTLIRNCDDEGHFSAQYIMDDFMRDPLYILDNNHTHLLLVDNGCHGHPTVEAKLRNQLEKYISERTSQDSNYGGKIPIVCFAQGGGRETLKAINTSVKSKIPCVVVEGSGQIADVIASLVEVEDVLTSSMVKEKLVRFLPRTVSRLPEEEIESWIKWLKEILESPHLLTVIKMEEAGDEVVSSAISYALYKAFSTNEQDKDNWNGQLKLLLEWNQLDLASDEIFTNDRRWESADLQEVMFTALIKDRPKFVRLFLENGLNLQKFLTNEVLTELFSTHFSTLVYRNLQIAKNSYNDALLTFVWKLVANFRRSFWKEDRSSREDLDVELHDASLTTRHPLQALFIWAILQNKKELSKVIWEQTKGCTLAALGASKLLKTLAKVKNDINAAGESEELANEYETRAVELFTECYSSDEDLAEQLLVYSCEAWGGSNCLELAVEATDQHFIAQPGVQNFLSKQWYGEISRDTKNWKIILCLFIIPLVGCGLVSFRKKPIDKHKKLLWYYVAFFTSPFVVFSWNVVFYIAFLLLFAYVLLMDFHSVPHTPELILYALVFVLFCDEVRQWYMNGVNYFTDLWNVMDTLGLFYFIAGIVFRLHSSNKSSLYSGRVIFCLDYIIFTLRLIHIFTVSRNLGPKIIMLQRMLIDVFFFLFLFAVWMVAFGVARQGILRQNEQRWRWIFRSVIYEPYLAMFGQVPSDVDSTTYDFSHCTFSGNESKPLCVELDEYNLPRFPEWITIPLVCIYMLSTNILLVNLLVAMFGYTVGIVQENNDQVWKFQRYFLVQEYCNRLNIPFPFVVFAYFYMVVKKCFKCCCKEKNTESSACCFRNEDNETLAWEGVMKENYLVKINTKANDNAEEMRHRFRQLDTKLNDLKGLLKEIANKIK
Chain of Transient receptor potential cation channel subfamily A member 1 (Rattus norvegicus) (Q6RI86 whole entry): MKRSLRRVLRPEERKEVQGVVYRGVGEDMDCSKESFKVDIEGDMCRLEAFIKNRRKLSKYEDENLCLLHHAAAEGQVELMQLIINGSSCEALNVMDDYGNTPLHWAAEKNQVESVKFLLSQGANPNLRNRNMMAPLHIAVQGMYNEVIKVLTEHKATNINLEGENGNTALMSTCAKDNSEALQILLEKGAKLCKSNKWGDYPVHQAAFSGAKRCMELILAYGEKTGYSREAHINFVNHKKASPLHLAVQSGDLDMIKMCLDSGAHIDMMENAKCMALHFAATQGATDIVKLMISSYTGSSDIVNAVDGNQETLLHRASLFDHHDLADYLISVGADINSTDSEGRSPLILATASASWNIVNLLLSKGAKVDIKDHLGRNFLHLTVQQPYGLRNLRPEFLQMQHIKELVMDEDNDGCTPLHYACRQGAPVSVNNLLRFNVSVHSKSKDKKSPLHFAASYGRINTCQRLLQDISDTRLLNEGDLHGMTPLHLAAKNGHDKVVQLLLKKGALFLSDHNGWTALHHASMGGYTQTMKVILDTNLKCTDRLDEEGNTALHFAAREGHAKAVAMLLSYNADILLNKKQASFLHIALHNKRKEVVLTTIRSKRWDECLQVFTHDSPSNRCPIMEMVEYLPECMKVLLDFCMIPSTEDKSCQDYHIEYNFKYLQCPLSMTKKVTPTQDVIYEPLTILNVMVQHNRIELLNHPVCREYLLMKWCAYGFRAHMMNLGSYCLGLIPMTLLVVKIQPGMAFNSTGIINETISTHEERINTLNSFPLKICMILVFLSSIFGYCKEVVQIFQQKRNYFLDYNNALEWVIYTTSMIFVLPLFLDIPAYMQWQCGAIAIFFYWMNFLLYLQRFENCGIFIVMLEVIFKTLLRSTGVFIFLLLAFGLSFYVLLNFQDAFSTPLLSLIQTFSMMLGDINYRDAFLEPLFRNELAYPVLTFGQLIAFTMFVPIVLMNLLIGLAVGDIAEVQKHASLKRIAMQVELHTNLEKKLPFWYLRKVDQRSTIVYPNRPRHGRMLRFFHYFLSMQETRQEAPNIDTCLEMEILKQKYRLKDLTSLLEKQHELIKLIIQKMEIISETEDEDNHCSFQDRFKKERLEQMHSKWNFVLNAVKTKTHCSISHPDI
T1 sequence (Q6RI86 whole entry): as above

SMILES	Efficacy ([1]; filed as agonist) [%]	pEC50 [2]	pIC50 [3]	pIC50 [4]	Activity [5]	Efficacy [1] [%]
CCCCCc1cc(O)c(C/C=C(\C)CCC(=O)O)c(O)c1C(=O)O	40.4	4.55	< 4.30	4.53		
CCCCCc1cc(O)c(C/C=C(\C)CCC=C(C)C)c(O)c1C(=O)O [CANNABIGEROLIC ACID]	183	5.08	5.15	5.88		
C=C(C)C(O)CC/C(C)=C/Cc1c(O)cc(CCCCC)c(C(=O)O)c1O (stereo not drawn)	96.1	4.92	4.43	4.98		
CCCCCC1=CC(=O)C(C/C=C(\C)CCC=C(C)C)=C(O)C1=O	134	5.11	5.08	5.52	inactive	
C=C(C)[C@H](O)CC/C(C)=C/Cc1c(O)cc(CCCCC)c(C(=O)O)c1O	68.5	5.07	< 4.30	5.28		
C=C(C)[C@@H](O)CC/C(C)=C/Cc1c(O)cc(CCCCC)c(C(=O)O)c1O		4.82	< 4.30	4.48		31
CCCCCc1cc(O)c(C/C=C(\C)CCC=C(C)C)c(O)c1	99.9					
CCCCCc1cc(O)c(C/C=C(\C)CCC(O)C(C)(C)O)c(O)c1C(=O)O (stereo not drawn)	84.1	4.99	4.60	4.76		
C=C(C)[C@H](CCC(C)=O)[C@@H]1c2c(cc(CCCCC)c(C(=O)O)c2O)O[C@H]1O	91.5	5.18	4.75	4.62		
C=C(C)C(O)CC/C(C)=C/Cc1c(O)cc(CCCCC)cc1O (racemic)	75.3	6.00	5.10	6.10	inactive	
C=C(C)[C@H](CCC(C)=O)[C@@H]1c2c(cc(CCCCC)c(C(=O)O)c2O)O[C@@H]1O	85.7	5.06	4.72	5.10		
C=C(C)C(O)CC/C(C)=C\Cc1c(O)cc(CCCCC)c(C(=O)O)c1O (stereo not drawn)	100	5.16	4.86	5.40	inactive	
